Values joined by “and” are separate entries in the source; they are usually repeats but may differ in a detail not shown here. Equal values may be shown once. Toxic doses and inconclusive results are not listed. The calls were made as follows: active = survival T/C of 150% or more; inactive = T/C below 125% in these data.
Test system: P388 leukemia ip, CD2F1 mice, survival T/C
Assay: NCI In Vivo Anticancer Drug Screen. Data for tumor model P388 Leukemia (intraperitoneal) in CD2F1 (CDF1) mice
Conditions: endpoint: median survival time, higher = longer survival
How it was run: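 Mice carrying the transplanted tumor received test compound or vehicle. Survival was recorded in each group, and the value is the treated-group measurement divided by that of the vehicle-treated control group.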

[1] = dose: 100.0 mg/kg/injection, schedule: Q04DX003 (ip), vehicle: saline
[2] = dose: 50.0 mg/kg/injection, schedule: Q01DX005 (ip), vehicle: Klucel (hydroxypropylcellulose) (HPC)
[3] = dose: 100.0 mg/kg/injection, schedule: Q01DX005 (ip), vehicle: Klucel (hydroxypropylcellulose) (HPC)
[4] = dose: 200.0 mg/kg/injection, schedule: Q01DX005 (ip), vehicle: Klucel (hydroxypropylcellulose) (HPC)
[5] = dose: 50.0 mg/kg/injection, schedule: Q01DX009 (ip), vehicle: saline with Tween-80
[6] = dose: 100.0 mg/kg/injection, schedule: Q01DX009 (ip), vehicle: saline with Tween-80
[7] = dose: 200.0 mg/kg/injection, schedule: Q01DX009 (ip), vehicle: saline with Tween-80
[8] = dose: 50.0 mg/kg/injection, schedule: Q01DX005 (ip), vehicle: saline
[9] = dose: 100.0 mg/kg/injection, schedule: Q01DX005 (ip), vehicle: saline
[10] = dose: 200.0 mg/kg/injection, schedule: Q01DX005 (ip), vehicle: saline
[11] = dose: 50.0 mg/kg/injection, schedule: Q01DX005 (ip), vehicle: saline with Tween-80
[12] = dose: 100.0 mg/kg/injection, schedule: Q01DX005 (ip), vehicle: saline with Tween-80
[13] = dose: 200.0 mg/kg/injection, schedule: Q01DX005 (ip), vehicle: saline with Tween-80
[14] = dose: 60.0 mg/kg/injection, schedule: Q01DX005 (ip), vehicle: saline with Tween-80
[15] = dose: 120.0 mg/kg/injection, schedule: Q01DX005 (ip), vehicle: saline with Tween-80
[16] = dose: 240.0 mg/kg/injection, schedule: Q01DX005 (ip), vehicle: saline with Tween-80
[17] = dose: 100.0 mg/kg/injection, schedule: Q04DX002 (ip), vehicle: saline with Tween-80
[18] = dose: 200.0 mg/kg/injection, schedule: Q04DX002 (ip), vehicle: saline with Tween-80
[19] = dose: 25.0 mg/kg/injection, schedule: Q01DX005 (ip), vehicle: Klucel (hydroxypropylcellulose) (HPC)

Measured: T/C

CCO/C=C1\SC(=S)N(c2ccc(O)cc2)C1=O
inactive: [1] 113 % of control | dose: 200.0 mg/kg/injection, schedule: Q04DX003 (ip), vehicle: saline 113 % of control | dose: 400.0 mg/kg/injection, schedule: Q04DX003 (ip), vehicle: saline 109 % of control

COC(=O)n1oc2ccc(Br)cc2c1=O
inactive: [2] 98 % of control | [3] 100 % of control | [4] 106 % of control

CCCOC(=O)/C=C/C(=O)N1CC(C)N(C(=O)/C=C/C(=O)OCCC)CC1C (stereo not given)
inactive: [2] 109 % of control | [3] 98 % of control | [4] 98 % of control

CC(C)(C)CC(C)(C)c1ccc(OCc2ccc(F)cc2)cc1
inactive: [5] 99 % of control | [6] 95 % of control | [7] 98 % of control

CC(C)c1cc(N(C)C)cc(=S)[nH]1
inactive: [8] 104 % of control | [9] 94 % of control | [10] 102 % of control

CC(=O)Nc1nnc(-c2cc(=O)c3cc(C)ccc3o2)s1
inactive: [11] 92 % of control | [12] 91 % of control | [13] 90 % of control

CCOC(=O)C1(c2ccccc2)CCCN(C)CC1 (stereo not given)
inactive: dose: 25.0 mg/kg/injection, schedule: Q04DX003 (ip), vehicle: saline 107 % of control | dose: 50.0 mg/kg/injection, schedule: Q04DX003 (ip), vehicle: saline 107 % of control | [1] 98 % of control

S=S1CC2(CSSC2)C1.[Cl][Hg][Cl]
inactive: dose: 7.5 mg/kg/injection, schedule: Q01DX009 (ip), vehicle: saline 111 % of control | dose: 15.0 mg/kg/injection, schedule: Q01DX009 (ip), vehicle: saline 117 % of control

CN(C)c1ccc2c(Cl)cc(=O)[nH]c2c1
inactive: [14] 97 % of control | [15] 97 % of control | [16] 97 % of control

CCN(CC)CCOc1ccc(NC2=C(Cl)C(=O)C(Nc3ccc(OCCN(CC)CC)cc3)=C(Cl)C2=O)cc1
inactive: dose: 3.13 mg/kg/injection, schedule: Q01DX009 (ip), vehicle: saline + alcohol 103 % of control | dose: 6.25 mg/kg/injection, schedule: Q01DX009 (ip), vehicle: saline + alcohol 110 % of control | dose: 12.5 mg/kg/injection, schedule: Q01DX009 (ip), vehicle: saline + alcohol 112 % of control | dose: 12.5 mg/kg/injection, schedule: Q01DX009 (ip), vehicle: saline with Tween-80 105 % of control | dose: 25.0 mg/kg/injection, schedule: Q01DX009 (ip), vehicle: saline with Tween-80 106 % of control

O=C(/C=C/c1ccccc1Cl)c1ccccc1
inactive: [5] 112 % of control | [6] 110 % of control | [7] 114 % of control

CC1(Cc2ccccc2)N=C1c1ccccc1 (stereo not given)
inactive: [17] 106 % of control | [18] 103 % of control

CC1=C(C(=O)Nc2ccccc2)C(c2ccc(Cl)cc2Cl)C(C(=O)Nc2ccccc2)=C(C)N1
inactive: [17] 99 % of control | [18] 101 % of control | dose: 400.0 mg/kg/injection, schedule: Q04DX002 (ip), vehicle: saline with Tween-80 92 % of control

ClCC1CSC(c2ccc3c(c2)OCO3)O1 (stereo not given)
inactive: [5] 101 % of control and 96 % of control | [6] 121 % of control and 91 % of control | [7] 98 % of control

O=C(c1ccc([N+](=O)[O-])cc1)c1cnc2nc(-c3ccccc3)c(-c3ccccc3)nn12
inactive: dose: 12.5 mg/kg/injection, schedule: Q01DX005 (ip), vehicle: saline with Tween-80 99 % of control | dose: 25.0 mg/kg/injection, schedule: Q01DX005 (ip), vehicle: saline with Tween-80 97 % of control | [11] 88 % of control and 93 % of control | [12] 89 % of control | [13] 96 % of control

CN(C)CCSC1=Nc2ccc(Cl)cc2C(c2ccccc2Cl)=NC1
inactive: [14] 98 % of control | dose: 60.0 mg/kg/injection, schedule: Q01DX005 (ip), vehicle: saline 99 % of control | [15] 101 % of control | dose: 120.0 mg/kg/injection, schedule: Q01DX005 (ip), vehicle: saline 104 % of control | [16] 105 % of control | dose: 240.0 mg/kg/injection, schedule: Q01DX005 (ip), vehicle: saline 98 % of control

NC(=O)c1ncn(C2OC(CO)C(O)C2O)n1 (stereo not given)
inactive: dose: 10.0 mg/kg/injection, schedule: Q01DX009 (ip), vehicle: saline 99 % of control and 101 % of control | dose: 20.0 mg/kg/injection, schedule: Q01DX009 (ip), vehicle: saline 104 % of control | dose: 40.0 mg/kg/injection, schedule: Q01DX009 (ip), vehicle: saline 105 % of control and 106 % of control and 109 % of control | dose: 80.0 mg/kg/injection, schedule: Q01DX009 (ip), vehicle: saline 108 % of control and 112 % of control and 118 % of control | dose: 160.0 mg/kg/injection, schedule: Q01DX009 (ip), vehicle: saline 122 % of control | dose: 320.0 mg/kg/injection, schedule: Q01DX009 (ip), vehicle: saline 87 % of control

CC1(C)CC(=O)C(CC(=O)c2ccccc2)=C(NNc2ccncc2)C1
inactive: dose: 50.0 mg/kg/injection, schedule: Q01DX009 (ip), vehicle: Klucel (hydroxypropylcellulose) (HPC) 94 % of control | dose: 100.0 mg/kg/injection, schedule: Q01DX009 (ip), vehicle: Klucel (hydroxypropylcellulose) (HPC) 95 % of control | dose: 200.0 mg/kg/injection, schedule: Q01DX009 (ip), vehicle: Klucel (hydroxypropylcellulose) (HPC) 91 % of control

Cc1ccc(C2c3c(c4ccccc4n3C(=O)c3ccccc3)C(=O)NN2C(=O)c2ccccc2)cc1 (stereo not given)
inactive: [2] 97 % of control | [3] 90 % of control | [4] 95 % of control

CCN(CC)C1=C(C)C2C(C)(C)N=NC12C(=O)OC (stereo not given)
inactive: [8] 98 % of control | [9] 102 % of control | [10] 116 % of control

O=C(O)c1cc(-c2ccc(Cl)cc2)nc2c(-c3ccccc3)cccc12
inactive: [5] 91 % of control | [6] 103 % of control | [7] 104 % of control

CC1C(=O)C(C)C(c2ccccc2)N(C)C1c1ccccc1 (stereo not given)
inactive: [11] 96 % of control | [14] 101 % of control | [12] 106 % of control | [15] 96 % of control | [13] 98 % of control | [16] 106 % of control

O=C(O)c1cc2oc(-c3ccccc3)cc2[nH]1
inactive: [14] 94 % of control | [15] 92 % of control

C=C1C(=O)OC2/C=C(\CO)C3OC3C3OC3(C)CC(OC(=O)/C(=C/C)COC(C)=O)C12 (stereo not given)
inactive: [19] 98 % of control | [2] 114 % of control

COc1cc2c(cc1OC)-c1c(O)c(OC)cc3c1C(C2)N(C)CC3 (stereo not given)
inactive: dose: 1.12 mg/kg/injection, schedule: Q01DX009 (ip), vehicle: Klucel (hydroxypropylcellulose) (HPC) 100 % of control | dose: 1.25 mg/kg/injection, schedule: Q01DX009 (ip), vehicle: Klucel (hydroxypropylcellulose) (HPC) 103 % of control | dose: 2.25 mg/kg/injection, schedule: Q01DX009 (ip), vehicle: Klucel (hydroxypropylcellulose) (HPC) 100 % of control and 103 % of control | dose: 2.5 mg/kg/injection, schedule: Q01DX009 (ip), vehicle: Klucel (hydroxypropylcellulose) (HPC) 91 % of control | dose: 4.5 mg/kg/injection, schedule: Q01DX009 (ip), vehicle: Klucel (hydroxypropylcellulose) (HPC) 103 % of control | dose: 5.0 mg/kg/injection, schedule: Q01DX009 (ip), vehicle: Klucel (hydroxypropylcellulose) (HPC) 97 % of control | dose: 9.0 mg/kg/injection, schedule: Q01DX009 (ip), vehicle: Klucel (hydroxypropylcellulose) (HPC) 110 % of control and 95 % of control | dose: 10.0 mg/kg/injection, schedule: Q01DX009 (ip), vehicle: Klucel (hydroxypropylcellulose) (HPC) 97 % of control | dose: 18.0 mg/kg/injection, schedule: Q01DX009 (ip), vehicle: Klucel (hydroxypropylcellulose) (HPC) 93 % of control

Cn1c(=S)[nH]n(CCOc2ccccc2)c1=S
inactive: [14] 118 % of control | [15] 98 % of control and 99 % of control and 108 % of control | [16] 109 % of control and 123 % of control and 97 % of control | dose: 480.0 mg/kg/injection, schedule: Q01DX005 (ip), vehicle: saline with Tween-80 105 % of control and 96 % of control

CCOC(=O)C(Cc1cc2c(n1C)CCCC2)(NC(C)=O)C(=O)OCC
inactive: [19] 98 % of control | [2] 96 % of control | [3] 98 % of control | [4] 100 % of control

CCOC(=O)/C(C#N)=N/Nc1ccc2cn[nH]c2c1
inactive: [2] 99 % of control | [3] 94 % of control | [4] 97 % of control

Cc1nn2c(-c3ccccc3)cnnc2c1-c1ccccc1
inactive: [2] 101 % of control | [3] 98 % of control | [4] 96 % of control

CC(C)(C)OC(=O)NC(Cc1ccc(OCc2ccccc2)cc1)C(=O)O (stereo not given)
inactive: [11] 104 % of control | [12] 106 % of control | [13] 97 % of control

CN1CCN(C(=O)/C(=C/c2ccccc2)NC(=O)c2ccccc2)CC1
inactive: [11] 96 % of control | [12] 95 % of control | [13] 87 % of control

Reference: PubChem BioAssay AID330 (DTP/NCI, 2004)
